# From patent publication US20170088589A1, “STATIN RESISTANCE AND EXPORT” (DANMARKS TEKNISKE UNIVERSITET, priority 2014, published 2017)
# Test system: Saccharomyces cerevisiae strains (wt, ARX3, AR29 pdr5Δ, pdr5Δ)
# Experiment: agar-plate dilution assay (spot assay) with lovastatin, PDR5 complementation (FIG. 4)
# Details: lowest tested concentration (0.74 mM) of activated lovastatin, 30° C., 3 days
# Experimental: The constructed strains response to different lovastatin levels present in the growth medium were tested using a agar-plate dilution assay (also known as a spot assay). Overnight cultures of the four Saccharomyces cerevisiae strains (wt, ARX3, AR29 pdr5Δ, pdr5Δ,) were diluted to OD600 of 0.2 and a fivefold dilution series for each strain was made. […] The growth of the individual strain as a function of time was recorded by photography.
row,SMILES,growth of pdr5Δ strain
1,CC[C@H](C)C(=O)O[C@H]1C[C@@H](C)C=C2C=C[C@H](C)[C@H](CC[C@@H]3C[C@@H](O)CC(=O)O3)[C@H]21 [lovastatin],lack of growth

# Test system: Saccharomyces cerevisiae WT and ARX3 strain harbouring the putative efflux pump MlcE
# Experiment: serial dilution plating of WT and ARX3 on YPD agar plates containing different cytotoxic compounds (FIG. 3)
# Type: cell-based
# Details: compound in YPD agar, tenfold dilution series, 30° C., 2 days; compactin, lovastatin, simvastatin in active form
# Experimental: Investigation of the potential of MlcE to confer the resistance to statins in yeast. Tenfold dilution series of Saccharomyces cerevisiae WT and ARX3 strain harbouring the putative efflux pump MlcE, starting with an OD600 of 0.02 were prepared from overnight cultures.
# Moreover, to determine if the putative efflux pump MlcE has the ability to export statins across the plasma membrane the inventors of the present application also tested whether MlcE confers resistance to statins in yeast. […] The resulting yeast strain ARX3 was tested for susceptibility to compactin by serial dilution plating of both wild type (WT) and ARX3 strains on YPD agar plates supplemented with the active form of compactin (FIG. 3).
row,SMILES,resistance of MlcE-expressing strain ARX3 compared to the wild type strain
1,CC(C)c1c(C(=O)Nc2ccccc2)c(-c2ccccc2)c(-c2ccc(F)cc2)n1CC[C@@H](O)C[C@@H](O)CC(=O)O [atorvastatin],does not show an increased resistance
2,CC[C@H](C)C(=O)O[C@H]1CCC=C2C=C[C@H](C)[C@H](CC[C@@H]3C[C@@H](O)CC(=O)O3)[C@H]21 [compactin],increased resistance
3,CC[C@H](C)C(=O)O[C@H]1C[C@@H](C)C=C2C=C[C@H](C)[C@H](CC[C@@H]3C[C@@H](O)CC(=O)O3)[C@H]21 [lovastatin],increased resistance
4,COc1c(C)c2c(c(O)c1C/C=C(\C)CCC(=O)O)C(=O)OC2 [mycophenolic acid],does not show an increased resistance
5,COc1cc(C=O)ccc1O [vanillin],does not show an increased resistance
